Key:
PI3Kγ = biological target: T1, PI3Kγ (Mus musculus, UniProt Q9JHG7); assay: Acumen Assay - Raw264.7 p-AKT Assay (C5a stimulated); assay type: cell-based; conditions: Raw264.7 macrophage cells, compound 30 min, 10 nM C5a 5 min, p-AKT (Ser473) readout; read-out: PI3Kγ cell-C5a Raw264.7 IC50
T1 construct: endogenous in cells; host or cells: Raw264.7 macrophage cells
Protocol: Acumen® eX3 (A Mμltilaser Microplate Cytometer For Enhanced High Content Screening): TTP LabTech
3×10^4 Raw264.7 macrophage cells were seeded into 96-well plates with DMEM+10% heat-inactivated FBS at […], 90 ul/well, overnight. After starvation for 3 hr at 37° C. under 5% CO2, Raw264.7 cells were treated with 10 ul/well various concentrations of compound or 0.5% DMSO for 30 min, and then stimulated with 10 ul/well 10 nM C5a for 5 min.
1.) Cells were fixed 110 μL of 4% pre-warmed Paraformaldehyde (2% final), incubate for 45 min at room temperature.
2.) Remove paraformaldehyde solution. Add 100 μL of ice-cold 0.1% Triton X-100 in PBS and leave at 4° C. for 30 min.
3.) Wash once in 100 μL PBS.
4.) Incubate with 100 μL blocking buffer (1% BSA, in PBS) for 2 hours at room temperature.
5.) Wash once for 5 min with 100 ul PBS.
6.) Incubate with 40 μL 1:200 dilution of phospho AKT (Ser473) rabbit antibody in antibody dilution buffer (0.1% BSA, in PBS) overnight at 4° C.
7.) Wash for 3 times for 10 min with 100 ul PBS.
8.) Incubate for 90 min at room temperature with 50 μL of goat anti-rabbit Alex488 antibody at a 1:1,000 dilution in antibody dilution buffer (0.1% BSA, in PBS). Cover plate in foil to keep out of light.
9.) Wash for 3 times for 10 min with 100 μL PBS.
10.) Add 50 μL of 1.5 μM Propidium Iodide solution to each well to determine cell number at a 1:1,000 dilution in PBS (stock: 1.5 mM).
11.) Incubate at room temperature for 30 min.
12.) Seal the plate with a black cover-seal (supplied with plate).
13.) Load the plate into the Acumen Explorer and scan with the appropriate instrument settings.

p110β/p85α = biological target: T2, p110β/p85α (Homo sapiens, UniProt P42338); assay: Transcreener KINASE Assay, kinase inhibition of p110β/p85α; assay type: biochemical; conditions: for IC50: read-out: PI3Kβ IC50
T2 construct: purchased Millipore
T2 sequence (P42338 whole entry, species assumed): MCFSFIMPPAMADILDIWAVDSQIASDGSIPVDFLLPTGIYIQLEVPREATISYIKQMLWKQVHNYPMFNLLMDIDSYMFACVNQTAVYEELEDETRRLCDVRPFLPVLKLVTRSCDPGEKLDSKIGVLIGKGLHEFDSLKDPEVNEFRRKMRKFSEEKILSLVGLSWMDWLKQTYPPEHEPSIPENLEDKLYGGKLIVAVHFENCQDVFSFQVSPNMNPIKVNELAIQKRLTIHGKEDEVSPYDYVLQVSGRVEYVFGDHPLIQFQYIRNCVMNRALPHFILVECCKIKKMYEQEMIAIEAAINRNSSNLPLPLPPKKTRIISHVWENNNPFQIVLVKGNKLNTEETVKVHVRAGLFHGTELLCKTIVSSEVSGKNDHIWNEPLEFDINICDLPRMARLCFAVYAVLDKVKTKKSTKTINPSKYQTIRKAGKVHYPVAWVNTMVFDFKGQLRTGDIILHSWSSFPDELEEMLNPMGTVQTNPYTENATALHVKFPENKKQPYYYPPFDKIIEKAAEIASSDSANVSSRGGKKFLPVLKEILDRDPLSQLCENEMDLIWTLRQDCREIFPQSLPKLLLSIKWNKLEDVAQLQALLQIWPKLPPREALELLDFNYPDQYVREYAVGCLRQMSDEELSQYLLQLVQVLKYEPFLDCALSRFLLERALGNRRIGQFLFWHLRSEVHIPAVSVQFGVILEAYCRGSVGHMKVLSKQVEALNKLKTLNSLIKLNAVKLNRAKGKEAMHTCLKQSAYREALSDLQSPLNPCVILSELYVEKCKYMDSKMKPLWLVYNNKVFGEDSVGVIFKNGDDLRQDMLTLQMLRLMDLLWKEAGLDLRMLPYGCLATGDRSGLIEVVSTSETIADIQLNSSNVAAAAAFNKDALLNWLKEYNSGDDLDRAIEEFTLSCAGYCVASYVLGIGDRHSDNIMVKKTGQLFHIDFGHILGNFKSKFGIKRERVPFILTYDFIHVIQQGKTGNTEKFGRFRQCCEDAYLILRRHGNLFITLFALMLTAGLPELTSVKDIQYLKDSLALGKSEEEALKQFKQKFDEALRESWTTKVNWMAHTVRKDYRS
T2 sequence (P27986 whole entry partner, species assumed): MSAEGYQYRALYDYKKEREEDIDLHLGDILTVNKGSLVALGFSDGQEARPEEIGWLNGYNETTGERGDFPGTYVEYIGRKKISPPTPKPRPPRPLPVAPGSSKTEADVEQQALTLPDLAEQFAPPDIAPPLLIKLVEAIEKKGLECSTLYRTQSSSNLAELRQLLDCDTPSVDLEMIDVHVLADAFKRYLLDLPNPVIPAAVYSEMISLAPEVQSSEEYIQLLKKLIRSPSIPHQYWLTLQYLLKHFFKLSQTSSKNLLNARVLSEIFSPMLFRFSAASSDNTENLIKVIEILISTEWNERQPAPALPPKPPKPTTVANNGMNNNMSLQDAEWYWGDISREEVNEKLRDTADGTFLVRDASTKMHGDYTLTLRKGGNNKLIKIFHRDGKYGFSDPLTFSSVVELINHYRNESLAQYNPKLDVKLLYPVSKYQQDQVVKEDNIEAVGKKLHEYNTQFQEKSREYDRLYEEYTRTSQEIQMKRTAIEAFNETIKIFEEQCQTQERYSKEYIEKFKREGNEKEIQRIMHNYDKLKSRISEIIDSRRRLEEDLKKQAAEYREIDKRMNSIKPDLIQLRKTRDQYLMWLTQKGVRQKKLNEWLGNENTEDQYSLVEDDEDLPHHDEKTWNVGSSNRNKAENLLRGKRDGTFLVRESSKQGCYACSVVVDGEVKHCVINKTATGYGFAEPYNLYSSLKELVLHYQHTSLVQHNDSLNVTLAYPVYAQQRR
Protocol: (§1) PI3K kinases including p110α/p85α, p110δ/p85α and p110γ are purchased from Invitrogen, and p110β/p85α is from Millipore.
(§2) Primary screening data and IC50 values are measured using Transcreener™ KINASE Assay (Bellbrook, Catalog #3003-10K). […] It is a universal, homogenous, high throughput screening (HTS) technology using a far-red, competitive fluorescence polarization immunoassay based on the detection of ADP to monitor the activity of enzymes that catalyze group transfer reactions. Briefly, the Transcreener KINASE Assay is designed as a simple two-part, endpoint assay.
(§3) In the first step, the 25 ul kinase reaction is performed by preparing a reaction mixture containing 5 ul test compound (2% DMSO final concentration), 10 ul kinase, buffer (50 mM HEPES, 100 mM NaCl, 1 mM EGTA, 0.03% CHAPS, 3 mM MgCl2, and freshly supplemented 1 mM DTT), and 10 ul 30 uM PIP2/10 uM ATP. The plate is sealed and incubated for 80 min at room temperature. Next, 25 ul ADP detection mix is added per well. The plate is sealed again and incubated for 60 min at room temperature, and then measure fluorescence polarization by Tecan Infinite F500 Reader.
(§4) Data is analyzed and IC50s are generated using the add-in software for Microsoft Excel, Xlfit™ (version 2.0). IH %=(ADP amount under 2% DMSO-ADP amount under test compound)/ADP amount under 2% DMSO.

p110δ/p85α = biological target: T3, p110δ/p85α (Homo sapiens, UniProt O00329); assay: Transcreener KINASE Assay, kinase inhibition of p110δ/p85α; assay type: biochemical; conditions: for IC50: read-out: PI3Kδ IC50
T3 construct: purchased Invitrogen
T3 sequence (O00329 whole entry, species assumed): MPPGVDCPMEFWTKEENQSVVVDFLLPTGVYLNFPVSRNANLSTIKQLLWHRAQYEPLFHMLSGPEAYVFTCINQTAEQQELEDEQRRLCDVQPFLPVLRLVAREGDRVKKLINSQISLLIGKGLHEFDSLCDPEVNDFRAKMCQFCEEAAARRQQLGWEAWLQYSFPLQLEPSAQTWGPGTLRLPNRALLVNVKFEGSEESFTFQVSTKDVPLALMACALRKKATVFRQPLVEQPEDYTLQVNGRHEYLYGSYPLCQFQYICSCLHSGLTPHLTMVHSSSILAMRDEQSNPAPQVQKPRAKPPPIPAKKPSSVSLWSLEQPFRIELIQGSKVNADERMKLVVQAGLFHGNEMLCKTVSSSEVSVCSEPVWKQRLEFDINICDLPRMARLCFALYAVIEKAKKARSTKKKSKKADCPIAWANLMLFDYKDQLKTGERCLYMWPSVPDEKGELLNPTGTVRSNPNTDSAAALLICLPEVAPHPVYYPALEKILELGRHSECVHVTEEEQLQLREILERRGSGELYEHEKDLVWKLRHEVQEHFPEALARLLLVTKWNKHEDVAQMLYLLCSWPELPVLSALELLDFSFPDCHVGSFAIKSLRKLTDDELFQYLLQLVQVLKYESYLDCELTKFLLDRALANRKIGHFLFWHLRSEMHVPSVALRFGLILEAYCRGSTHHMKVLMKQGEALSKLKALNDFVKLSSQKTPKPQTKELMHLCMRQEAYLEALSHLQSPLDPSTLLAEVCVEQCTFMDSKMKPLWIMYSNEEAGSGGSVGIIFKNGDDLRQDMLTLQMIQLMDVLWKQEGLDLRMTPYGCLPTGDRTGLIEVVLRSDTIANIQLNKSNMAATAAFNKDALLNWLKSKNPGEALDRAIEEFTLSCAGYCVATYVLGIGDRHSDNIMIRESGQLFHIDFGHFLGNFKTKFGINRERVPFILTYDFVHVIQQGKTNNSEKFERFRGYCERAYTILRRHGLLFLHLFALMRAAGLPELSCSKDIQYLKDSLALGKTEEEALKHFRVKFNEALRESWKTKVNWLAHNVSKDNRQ
T3 sequence (P27986 whole entry partner, species assumed): as the sequence (P27986 whole entry partner, species assumed) above
Protocol: as §1, §2, §3, §4

p110γ = biological target: T4, p110γ (Homo sapiens, UniProt P48736); assay: Transcreener KINASE Assay, kinase inhibition of p110γ; assay type: biochemical; conditions: for IC50: read-out: PI3Kγ IC50
T4 construct: purchased Invitrogen
T4 sequence (P48736 whole entry, species assumed): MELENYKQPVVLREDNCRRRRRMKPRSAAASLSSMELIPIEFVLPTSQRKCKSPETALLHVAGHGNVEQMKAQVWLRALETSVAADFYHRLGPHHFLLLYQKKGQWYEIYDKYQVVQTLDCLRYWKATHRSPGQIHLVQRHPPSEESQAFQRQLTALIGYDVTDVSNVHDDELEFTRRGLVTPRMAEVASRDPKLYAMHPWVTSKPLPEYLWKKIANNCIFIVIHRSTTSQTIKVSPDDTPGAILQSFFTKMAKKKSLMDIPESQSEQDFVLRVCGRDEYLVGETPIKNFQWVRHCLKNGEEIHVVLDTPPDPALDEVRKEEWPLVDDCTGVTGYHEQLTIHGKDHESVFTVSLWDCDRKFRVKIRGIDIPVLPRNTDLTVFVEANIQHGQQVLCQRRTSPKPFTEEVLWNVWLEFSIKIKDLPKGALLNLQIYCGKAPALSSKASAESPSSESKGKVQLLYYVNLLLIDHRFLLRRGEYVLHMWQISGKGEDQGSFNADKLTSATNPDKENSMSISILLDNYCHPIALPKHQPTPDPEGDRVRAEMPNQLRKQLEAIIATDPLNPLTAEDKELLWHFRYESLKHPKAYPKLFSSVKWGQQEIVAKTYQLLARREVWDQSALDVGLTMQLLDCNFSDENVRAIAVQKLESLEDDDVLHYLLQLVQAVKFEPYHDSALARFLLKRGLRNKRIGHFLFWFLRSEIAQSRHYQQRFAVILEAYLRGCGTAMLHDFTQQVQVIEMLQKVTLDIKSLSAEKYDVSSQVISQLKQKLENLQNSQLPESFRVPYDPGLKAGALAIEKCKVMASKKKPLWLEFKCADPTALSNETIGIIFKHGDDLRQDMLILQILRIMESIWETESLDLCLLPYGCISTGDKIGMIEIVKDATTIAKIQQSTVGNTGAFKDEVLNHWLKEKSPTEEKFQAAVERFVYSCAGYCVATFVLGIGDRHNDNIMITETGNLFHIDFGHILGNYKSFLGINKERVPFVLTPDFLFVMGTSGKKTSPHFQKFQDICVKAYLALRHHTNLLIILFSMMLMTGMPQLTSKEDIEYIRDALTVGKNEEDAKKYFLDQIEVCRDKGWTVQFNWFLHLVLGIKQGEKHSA
Protocol: PI3K kinases including p110α/p85α, p110δ/p85α and p110γ are purchased from Invitrogen, and p110β/p85α is from Millipore. Primary screening data and IC50 values are measured using Transcreener™ KINASE Assay (Bellbrook, Catalog #3003-10K). […] It is a universal, homogenous, high throughput screening (HTS) technology using a far-red, competitive fluorescence polarization immunoassay based on the detection of ADP to monitor the activity of enzymes that catalyze group transfer reactions. Briefly, the Transcreener KINASE Assay is designed as a simple two-part, endpoint assay. […] The plate is sealed and incubated for 80 min at room temperature. Next, 25 ul ADP detection mix is added per well. The plate is sealed again and incubated for 60 min at room temperature, and then measure fluorescence polarization by Tecan Infinite F500 Reader. Data is analyzed and IC50s are generated using the add-in software for Microsoft Excel, Xlfit™ (version 2.0).

T1 sequence (Q9JHG7 whole entry): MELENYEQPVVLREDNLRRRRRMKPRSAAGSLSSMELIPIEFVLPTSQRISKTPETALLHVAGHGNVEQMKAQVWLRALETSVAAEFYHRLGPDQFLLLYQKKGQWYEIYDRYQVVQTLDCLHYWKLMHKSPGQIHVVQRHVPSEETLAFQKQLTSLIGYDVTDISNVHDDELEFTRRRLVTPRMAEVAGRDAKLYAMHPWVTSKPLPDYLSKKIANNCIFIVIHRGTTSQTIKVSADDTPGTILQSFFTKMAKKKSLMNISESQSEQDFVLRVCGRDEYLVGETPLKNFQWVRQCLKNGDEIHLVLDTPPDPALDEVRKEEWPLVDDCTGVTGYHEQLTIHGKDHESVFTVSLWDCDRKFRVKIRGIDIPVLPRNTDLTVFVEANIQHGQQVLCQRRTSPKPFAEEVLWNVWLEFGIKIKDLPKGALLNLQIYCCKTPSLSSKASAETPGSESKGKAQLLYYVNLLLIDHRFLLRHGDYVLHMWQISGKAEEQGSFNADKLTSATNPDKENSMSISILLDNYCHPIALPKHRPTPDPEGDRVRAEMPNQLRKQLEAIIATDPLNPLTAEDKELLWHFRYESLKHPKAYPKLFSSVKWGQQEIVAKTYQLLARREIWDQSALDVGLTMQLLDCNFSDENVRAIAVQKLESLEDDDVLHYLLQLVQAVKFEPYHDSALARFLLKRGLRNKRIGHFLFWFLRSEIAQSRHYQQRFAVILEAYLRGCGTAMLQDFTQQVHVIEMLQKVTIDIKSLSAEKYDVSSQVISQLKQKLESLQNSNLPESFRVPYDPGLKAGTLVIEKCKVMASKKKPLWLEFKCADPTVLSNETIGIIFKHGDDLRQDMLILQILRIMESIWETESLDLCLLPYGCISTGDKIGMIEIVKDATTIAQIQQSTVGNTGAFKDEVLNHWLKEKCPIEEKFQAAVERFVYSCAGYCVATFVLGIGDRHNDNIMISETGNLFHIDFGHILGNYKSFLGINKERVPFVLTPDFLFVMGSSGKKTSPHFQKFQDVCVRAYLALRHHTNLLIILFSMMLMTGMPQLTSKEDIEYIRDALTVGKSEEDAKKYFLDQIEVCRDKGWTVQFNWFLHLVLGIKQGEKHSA

| IC50 (PI3Kγ) [nM] | PI3Kβ IH % @ 1 uM (p110β/p85α) [%] | PI3Kδ IH % @ 1 uM (p110δ/p85α) [%] | PI3Kγ IH % @ 1 uM (p110γ) [%] | other results | SMILES |
| --- | --- | --- | --- | --- | --- |
| 6 | – | – | – | – | CC(=O)c1cnc(N)nc1N1CC[C@H]1c1nn2ccc(Cl)c2c(=O)n1-c1ccccc1 [Compound 299] |
| 2 | – | – | – | – | N#Cc1c[nH]c2ncnc(N3C[C@@H](F)C[C@H]3c3nn4ccc(Cl)c4c(=O)n3-c3cccc(F)c3)c12 [Compound 213] |
| 46 | – | – | – | – | CC(Nc1ncnc2[nH]cc(F)c12)c1cc2ncc(Cl)n2c(=O)n1-c1ccccc1 (centres unmarked) [Compound 285] |
| 21 | – | – | – | – | Nc1nc2c(c(N3CCC[C@H]3c3nn4ccc(Cl)c4c(=O)n3-c3ccccc3)n1)C(=O)CCN2 [Compound 242] |
| 3 | – | – | – | – | CC(=O)c1cnc(N)nc1NC(C)c1cn2ccc(Cl)c2c(=O)n1-c1ccccc1 (centres unmarked) [Compound 273] |
| 6 | – | – | – | – | N#Cc1c[nH]c2ncnc(N3CCCC3c3cn4ccc(Cl)c4c(=O)n3-c3ccccc3)c12 (centres unmarked) [Compound 364] |
| 22 | – | – | – | – | N#Cc1cnc(N)nc1N1CCC[C@H]1c1nn2ccc(Cl)c2c(=O)n1-c1ccccc1 [Compound 207] |
| 43 | – | – | – | – | CC(=O)c1cnc(N)nc1NC(C)c1cc2ncc(Cl)n2c(=O)n1-c1ccccc1 (centres unmarked) [Compound 288] |
| 5 | – | – | – | – | N#Cc1cnc(N)nc1N1C[C@@H](C#N)C[C@H]1c1nn2ccc(Cl)c2c(=O)n1-c1ccccc1 [Compound 351] |
| 65 | – | – | – | – | CC(Nc1ncnc2[nH]cc(F)c12)c1cn2ccc(Cl)c2c(=O)n1-c1ccccc1 (centres unmarked) [Compound 270] |
| 43 | – | – | – | – | CC(=O)c1cnc(N)nc1N1CC[C@H]1c1nn2ccc(Cl)c2c(=O)n1-c1ccc(F)cc1 [Compound 302] |
| 9 | – | – | – | – | CC(=O)c1cnc(N)nc1N1CCCC1c1cn2ccc(Cl)c2c(=O)n1-c1ccccc1 (centres unmarked) [Compound 321] |
| – | 18.0 | 97.8 | 71.9 | IC50 (p110γ): 477 nM | O=c1c2cccn2nc([C@@H]2CCCN2c2ncnc3[nH]cnc23)n1-c1cccc(F)c1 [Compound 13] |
| – | 8.9 | 7.7 | 21.2 | – | N#Cc1c[nH]c2ncnc(N3CCC[C@@H]3c3nn4cccc4c(=O)n3-c3ccccc3)c12 [Compound 22] |
| – | – | – | – | IC50 (p110β/p85α): 50 nM; IC50 (p110δ/p85α): 2 nM; IC50 (p110γ): 12 nM | C[C@H]1CCN(c2ncnc3[nH]cnc23)C1c1nn2ccc(Cl)c2c(=O)n1-c1ccccc1 (some centres unmarked) [Compound 234] |
| – | −1.3 | 94.3 | 30.4 | – | COc1cccc(-n2c([C@@H]3CCCN3c3ncnc(N)c3Cl)nn3cccc3c2=O)c1 [Compound 21] |
| – | 6.0 | 60.4 | 59.5 | – | Nc1nc(N2CCC[C@H]2c2nn3cccc3c(=O)n2-c2ccccc2)c2cc[nH]c2n1 [Compound 10] |
| – | 61.9 | 86.8 | 41.1 | IC50 (p110δ/p85α): 232 nM | N#Cc1c[nH]c2ncnc(N3CCC[C@H]3c3nn4c(F)ccc4c(=O)[nH]3)c12 [Compound 106, (S)-4-(2-(7-fluoro-4-oxo-3,4-dihydropyrrolo[1,2-f][1,2,4]triazin-2-yl)pyrrolidin-1-yl)-7H-pyrrolo[2,3-d]pyrimidine-5-carbonitrile] |
| – | 25.1 | 100 | 87.3 | IC50 (p110γ): 85 nM | N#Cc1c[nH]c2ncnc(N3CCC[C@H]3c3nn4cccc4c(=O)n3-c3cccc(F)c3)c12 [Compound 16] |
| – | 31.1 | >100 | 83.8 | – | COc1cccc(-n2c([C@@H]3CCCN3c3ncnc4[nH]cc(C#N)c34)nn3cccc3c2=O)c1 [Compound 9] |
| – | 82.0 | – | – | IC50 (p110δ/p85α): 4 nM; IC50 (p110γ): 10 nM | CC(Nc1ncnc2[nH]cc(C#N)c12)c1cn2ccc(Cl)c2c(=O)n1-c1cccc(F)c1 (centres unmarked) [Compound 76] |
| – | 63.9 | 92.7 | >100 | – | CC(Nc1ncnc2[nH]cc(C#N)c12)c1cc2cccn2c(=O)n1-c1ccccc1 (centres unmarked) [Compound 121] |
| – | 56.9 | 90.7 | 78.1 | IC50 (p110γ): 265 nM | O=c1c2cccn2nc([C@@H]2CCCN2c2ncnc3[nH]cnc23)n1-c1ccc(F)cc1 [Compound 14] |
| – | – | – | – | IC50 (p110β/p85α): > 1000 nM; IC50 (p110δ/p85α): 27 nM; IC50 (p110γ): 361 nM | N#Cc1cnc(N)nc1N1CCC1c1nn2ccc(Cl)c2c(=O)n1CC1CC1 (centres unmarked) [Compound 373] |
| – | – | – | – | IC50 (p110β/p85α): 26 nM; IC50 (p110δ/p85α): 4 nM; IC50 (p110γ): 13 nM | C[C@H]1CCN(c2ncnc3[nH]cc(C#N)c23)C1c1nn2ccc(Cl)c2c(=O)n1-c1ccccc1 (some centres unmarked) [Compound 233] |
| – | −7.7 | 22.9 | 24.4 | – | Nc1nc(N2CCC[C@H]2c2nn3cccc3c(=O)n2-c2ccccc2)c2cn[nH]c2n1 [Compound 11] |
| – | 7.5 | 97.4 | 68.6 | – | COc1cccc(-n2c([C@@H]3CCCC3c3ncnc4[nH]cnc34)nn3cccc3c2=O)c1 (some centres unmarked) [Compound 20] |
| – | 23.9 | 72.8 | 38.7 | – | N#Cc1n[nH]c2ncnc(N3CCC[C@H]3c3nn4cccc4c(=O)n3-c3ccccc3)c12 [Compound 110, (S)-4-(2-(4-oxo-3-phenyl-3,4-dihydropyrrolo[1,2-f][1,2,4]triazin-2-yl)pyrrolidin-1-yl)-1H-pyrazolo[3,4-d]pyrimidine-3-carbonitrile] |
| – | – | – | – | IC50 (p110β/p85α): 13 nM; IC50 (p110δ/p85α): 0.3 nM; IC50 (p110γ): 1 nM | CC(=O)c1cnc(N)nc1NC(C)c1cn2ccc(F)c2c(=O)n1-c1ccccc1 (single isomer, unassigned) [Compound 452] |
| – | 23.1 | 80.6 | 27.9 | IC50 (p110δ/p85α): 158 nM | O=c1c2cccn2nc([C@@H]2CCCN2c2ncnc3[nH]nc(Br)c23)n1-c1ccccc1 [Compound 12] |

From patent US20150291593A1, “NOVEL HETEROARYL AND HETEROCYCLE COMPOUNDS, COMPOSITIONS AND METHODS” (HUTCHISON MEDIPHARMA LIMITED, priority 2012, published 2015)
